In PMC6979384, “Characterization of the plant homeodomain (PHD) reader family for their histone tail interactions” (Epigenetics & Chromatin, 2020):
Where no end group is shown, it is not given here. [ ]: non-standard residue; d: D form. Lys(Me2) = CN(C)CCCC[C@H](N)C(=O)O

What was measured:
Assay in all cases: Histone peptide microarray
Format in all cases: binding, human
Settings in all cases: histone peptide array, GST-tagged reader
[1] = tested on: DIDO1
In short: (§1)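 Using an optimized microarray protocol, purified GST-tagged PHD fingers were incubated at 0.5 μM on 293 histone peptides with single or multiple modifications, and array signal was recorded as the average of 4 replicates.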

[2] = tested on: KDM5B (1)
In short: as §1

[3] = tested on: PHRF1 (RP)
In short: as §1

[4] = tested on: KDM4C (TTP)
In short: as §1

[5] = tested on: TRIM66 (PB)
In short: as §1

[6] = tested on: ING3
In short: as §1

[7] = tested on: AIRE (PP)
In short: as §1

[8] = tested on: MLL5
In short: as §1

[9] = tested on: PHF2
In short: as §1

[10] = tested on: ING4
In short: as §1

[11] = tested on: KDM7A
In short: as §1

[12] = tested on: KDM5B (3)
In short: as §1

[13] = tested on: CHD4 (PPCC)
In short: as §1

[14] = tested on: DPF2 (PPC2W2)
In short: as §1

[15] = tested on: BAZ2B
In short: as §1

[16] = tested on: ING1
In short: as §1

[17] = tested on: TAF3
In short: as §1

[18] = tested on: KDM5A (3)
In short: as §1

[19] = tested on: BPTF (PB)
In short: as §1

[20] = tested on: ING5
In short: as §1

[21] = tested on: PHF23
In short: as §1

[22] = tested on: CHD5 (PPCC)
In short: as §1

[23] = tested on: SP140L
In short: as §1

[24] = tested on: MORC3 (CW)
In short: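 Each reader, produced as a GST fusion and purified, was tested at 0.5 μM on synthetic histone peptides (293 in total) carrying single or combinatorial marks. Intensities averaged over four replicates.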

[25] = tested on: RAG2
In short: as §1

[26] = tested on: ING2
In short: as §1

[27] = tested on: CHD5 (PCC)
In short: as §1

[28] = tested on: PHF13
In short: as §1

[29] = tested on: PHF8
In short: as §1

[30] = tested on: KDM5A (1)
In short: as §1

[31] = tested on: PHF21A
In short: as §1

[32] = PB = PHD + Bromodomain, arrays performed twice, n of 4
[33] = PPCC = Dual PHD + Dual Chromodomain, arrays performed twice, n of 4
[34] = sheet "Array Heatmap", total n = 4

Substance: H3.3K36me2 (27-45): H3.3 27-45 (KSAPSTGGV[Lys(Me2)]KPHRYRPGT; UniProt P84243 28-46, looked up, fragment)
- Array Heatmap signal, DIDO1 ([1]; arrays performed twice, n of 4): 0.7878
- Array Heatmap signal, KDM5B (1) ([2]; arrays performed twice, n of 4): 0.6701
- Array Heatmap signal, PHRF1 (RP) ([3]; arrays performed twice, n of 4): 0.4622
- Array Heatmap signal, KDM4C (TTP) ([4]; TTP = Tandem Tudor domain + PHD, arrays performed twice, n of 4): 0.5418
- Array Heatmap signal, TRIM66 (PB) [5, 32]: 0.6104
- Array Heatmap signal, ING3 ([6]; arrays performed twice, n of 4): 0.5215
- Array Heatmap signal, AIRE (PP) ([7]; arrays performed twice, n of 4): 0.4867
- Array Heatmap signal, MLL5 ([8]; arrays performed twice, n of 4): 0.5651
- Array Heatmap signal, PHF2 ([9]; arrays performed twice, n of 4): 0.5053
- Array Heatmap signal, ING4 ([10]; arrays performed twice, n of 4): 0.4773
- Array Heatmap signal, KDM7A ([11]; arrays performed twice, n of 4): 0.3737
- Array Heatmap signal, KDM5B (3) ([12]; arrays performed twice, n of 4): 0.5383
- Array Heatmap signal, CHD4 (PPCC) [13, 33]: 0.5698
- Array Heatmap signal, DPF2 (PPC2W2) ([14]; PPC2W2 = Dual PHD + C2W2-type Zn-finger, arrays performed twice, n of 4): 0.6778
- Array Heatmap signal, BAZ2B ([15]; arrays performed twice, n of 4): 0.4965
- Array Heatmap signal, ING1 ([16]; arrays performed twice, n of 4): 0.5396
- Array Heatmap signal, TAF3 ([17]; arrays performed twice, n of 4): 0.2867
- Array Heatmap signal, KDM5A (3) ([18]; arrays performed twice, n of 4): 0.4963
- Array Heatmap signal, BPTF (PB) [19, 32]: 0.3735
- Array Heatmap signal, ING5 ([20]; arrays performed twice, n of 4): 0.3908
- Array Heatmap signal, PHF23 ([21]; arrays performed twice, n of 4): 0.5877
- Array Heatmap signal, CHD5 (PPCC) [22, 33]: 0.6024
- Array Heatmap signal, SP140L ([23]; arrays performed twice, n of 4): 0.3879
- Array Heatmap signal, MORC3 (CW) ([24]; CW = CW-type Zn-finger, arrays performed twice, n of 4): 0.4027
- Array Heatmap signal, RAG2 ([25]; arrays performed twice, n of 4): 0.3087
- Array Heatmap signal, ING2 ([26]; arrays performed twice, n of 4): 0.5971
- Array Heatmap signal, CHD5 (PCC) ([27]; PCC = PHD + Dual Chromodomain, arrays performed twice, n of 4): 0.8212
- Array Heatmap signal, PHF13 ([28]; arrays performed twice, n of 4): 0.6587
- Array Heatmap signal, PHF8 ([29]; arrays performed twice, n of 4): 0.3824
- Array Heatmap signal, KDM5A (1) ([30]; arrays performed twice, n of 4): 0.505
- Array Heatmap signal, PHF21A ([31]; arrays performed twice, n of 4): 0.4763

Substance: H3K4me2 + T6p: H3 1-20
- Array Heatmap signal, DIDO1 [1, 34]: 0.7205
- Array Heatmap signal, KDM5B (1) [2, 34]: 0.6237
- Array Heatmap signal, PHRF1 (RP) [3, 34]: 0.4464
- Array Heatmap signal, KDM4C (TTP) [4, 34]: 0.4526
- Array Heatmap signal, TRIM66 (PB) [5, 34]: 0.586
- Array Heatmap signal, ING3 [6, 34]: 0.4685
- Array Heatmap signal, AIRE (PP) [7, 34]: 0.3956
- Array Heatmap signal, MLL5 [8, 34]: 0.5839
- Array Heatmap signal, PHF2 [9, 34]: 0.5776
- Array Heatmap signal, ING4 [10, 34]: 0.4083
- Array Heatmap signal, KDM7A [11, 34]: 0.3717
- Array Heatmap signal, KDM5B (3) [12, 34]: 0.4514
- Array Heatmap signal, CHD4 (PPCC) [13, 34]: 0.5639
- Array Heatmap signal, DPF2 (PPC2W2) [14, 34]: 0.6113
- Array Heatmap signal, BAZ2B [15, 34]: 0.3939
- Array Heatmap signal, ING1 [16, 34]: 0.5538
- Array Heatmap signal, TAF3 [17, 34]: 0.2971
- Array Heatmap signal, KDM5A (3) [18, 34]: 0.5519
- Array Heatmap signal, BPTF (PB) [19, 34]: 0.3354
- Array Heatmap signal, ING5 [20, 34]: 0.3133
- Array Heatmap signal, PHF23 [21, 34]: 0.5061
- Array Heatmap signal, CHD5 (PPCC) [22, 34]: 0.4881
- Array Heatmap signal, SP140L [23, 34]: 0.3405
- Array Heatmap signal, MORC3 (CW) [24, 34]: 0.4606
- Array Heatmap signal, RAG2 [25, 34]: 0.2424
- Array Heatmap signal, ING2 [26, 34]: 0.6785
- Array Heatmap signal, CHD5 (PCC) [27, 34]: 0.7961
- Array Heatmap signal, PHF13 [28, 34]: 0.5699
- Array Heatmap signal, PHF8 [29, 34]: 0.3931
- Array Heatmap signal, KDM5A (1) [30, 34]: 0.3957
- Array Heatmap signal, PHF21A [31, 34]: 0.4239
